Results from US11464802B2, “3-substituted piperidine compounds for Cbl-b inhibition, and use thereof” (Nurix Therapeutics, Inc., priority 2019, dated 2022).

Legend:
Cbl-b [1] = target: T1, Cbl-b (Homo sapiens (Human), UniProt Q13191); assay: Cbl-b displacement assay (Cbl-b inhibition assay), TR-FRET probe displacement, Biological Example 1; type: binding
Procedure, shortened: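 N-terminally Avitagged, biotinylated truncated Cbl-b (0.5 nM "High" or 0.125 nM "Low", final) pre-incubated 1 h at room temperature with compound (1% DMSO) in HEPES pH 7.5 buffer. Then 150 nM BODIPY FL probe (~EC40) plus 2 nM streptavidin-terbium for 1 h; TR-FRET read at 520/620 nm.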

[2] = system: primary human total T-cells; assay: Primary human total T-cell activation: IL-2 secretion, Biological Example 2; type: cell-based; conditions: 48 hours, fold change over baseline; for fold induction at 0.3 µM: inhibitor 0.3 μM; for fold induction at 1 µM: inhibitor 1 μM; for fold induction at 3 µM: inhibitor 3 μM
[3] = system: primary human total T-cells; assay: Primary human total T-cell activation: CD25 surface staining, Biological Example 2; type: cell-based; conditions: 48 hours, fold change over baseline; for fold induction at 0.3 µM: inhibitor 0.3 μM; for fold induction at 1 µM: inhibitor 1 μM; for fold induction at 3 µM: inhibitor 3 μM
Cbl-b [4] = target: T1, Cbl-b; assay: Cbl-b displacement assay (Cbl-b inhibition assay), Biological Example 8; type: binding; conditions: Table 8-1
Method: (§1) Candidate compounds were evaluated for their ability to bind and inhibit Cbl-b, an E3 ubiquitin-protein ligase, as evidenced by their ability to displace a fluorophore-labeled probe bound to Cbl-b.
(§2) The ability of candidate compounds to displace a known inhibitor and thereby inhibit Cbl-b activity was measured by monitoring the interaction of Cbl-b with a fluorophore-labeled probe in the presence of the candidate compound. A truncated variant of Cbl-b (UniProt number Q13191) containing residues 36-427 and an Avitag at its N-terminus was co-expressed with BirA biotin ligase and purified using a standard protocol (see Dou et al., Nature Structural and Molecular Biology 8: 982-987, 2013; Avidity LLC).
(§3) Fluorescently-labeled inhibitor probe was synthesized and tagged with BODIPY FL. Cbl-b displacement assays were performed in a 384-well plate at room temperature in a 10 μl reaction volume by pre-incubating 0.5 nM Cbl-b or 0.125 nM Cbl-b (final concentration, indicated as “High” and “Low”, respectively) in an assay buffer containing 20 mM HEPES pH 7.5, 150 mM NaCl, 0.01% Triton X-100, 0.01% BSA and 0.5 mM TCEP in the presence of a candidate compound in 1% DMSO (final concentration) for 1 hour. After incubation in the presence of the candidate compound, the plate was incubated for an additional 1 hour in the presence of an approximate EC40 binding saturation consisting of 150 nM fluorescently-labeled inhibitor probe and 2 nM Streptavidin-Terbium (Cisbio) (final concentrations). Following the 1 hour incubation, the plates were read for TR-FRET signal at 520/620 nM using an Envision plate reader (Perkin Elmer).
(§4) The resulting data for the Cbl-b activity assays were analyzed using standard methods to determine the IC50 values for the tested compounds.

[5] = system: primary human total T-cells; assay: Primary human total T-cell activation: IL-2 secretion, Biological Example 9; type: cell-based; conditions: 48 hours, fold change over baseline; for fold induction at 0.3 µM: inhibitor 0.3 μM; for fold induction at 0.3 µM / fold induction at 3 µM: Table 9-1; for fold induction at 1 µM: inhibitor 1 μM; for fold induction at 3 µM: inhibitor 3 μM
[6] = system: primary human total T-cells; assay: Primary human total T-cell activation: CD25 surface staining, Biological Example 9; type: cell-based; conditions: 48 hours, fold change over baseline; for fold induction at 0.3 µM: inhibitor 0.3 μM; for fold induction at 0.3 µM / fold induction at 3 µM: Table 9-1; for fold induction at 1 µM: inhibitor 1 μM; for fold induction at 3 µM: inhibitor 3 μM
Cbl-b [7] = target: T1, Cbl-b; assay: Cbl-b displacement assay (Cbl-b inhibition assay), Biological Example 12; type: binding; conditions: Table 12-1
Method: as §1, §2, §3, §4

[8] = system: primary human total T-cells; assay: Primary human total T-cell activation: IL-2 secretion, Biological Example 13; type: cell-based; conditions: 48 hours, fold change over baseline; for fold induction at 0.3 µM: inhibitor 0.3 μM; for fold induction at 0.3 µM / fold induction at 3 µM: Table 13-1; for fold induction at 1 µM: inhibitor 1 μM; for fold induction at 3 µM: inhibitor 3 μM
[9] = system: primary human total T-cells; assay: Primary human total T-cell activation: CD25 surface staining, Biological Example 13; type: cell-based; conditions: 48 hours, fold change over baseline; for fold induction at 0.3 µM: inhibitor 0.3 μM; for fold induction at 0.3 µM / fold induction at 3 µM: Table 13-1; for fold induction at 1 µM: inhibitor 1 μM; for fold induction at 3 µM: inhibitor 3 μM
[10] = 0.125 nM Cbl-b final concentration (Low), read-out: Cbl-b activity IC50 (Low)
[11] = Cbl-b concentration (High or Low) not given, read-out: IC50 values in the Cbl-b inhibition assay of Biological Example 1
[12] = anti-CD3/anti-CD28 co-stimulation
[13] = anti-CD3/anti-CD28 co-stimulation, read-out: IL-2 secretion CD3/CD28 1 μM
[14] = anti-CD3 alone, read-out: IL-2 secretion CD3 1 μM
[15] = anti-CD3/anti-CD28 co-stimulation, read-out: CD25 staining CD3/CD28 1 μM
[16] = anti-CD3 alone, read-out: CD25 staining CD3 1 μM
[17] = 0.125 nM Cbl-b final concentration (Low), read-out: Cbl-b IC50 (Low)
[18] = anti-CD3/anti-CD28 co-stimulation, Table 9-1, read-out: IL-2 secretion CD3/CD28 1 μM
[19] = anti-CD3 alone, Table 9-1, read-out: IL-2 secretion CD3 1 μM
[20] = anti-CD3/anti-CD28 co-stimulation, Table 9-1, read-out: CD25 staining CD3/CD28 1 μM
[21] = anti-CD3 alone, Table 9-1, read-out: CD25 staining CD3 1 μM
[22] = anti-CD3/anti-CD28 co-stimulation, Table 13-1, read-out: IL-2 secretion CD3/CD28 1 μM
[23] = anti-CD3 alone, Table 13-1, read-out: IL-2 secretion CD3 1 μM
[24] = anti-CD3/anti-CD28 co-stimulation, Table 13-1, read-out: CD25 staining CD3/CD28 1 μM
[25] = anti-CD3 alone, Table 13-1, read-out: CD25 staining CD3 1 μM
[26] = 0.5 nM Cbl-b final concentration (High), read-out: Cbl-b activity IC50 (High)
[27] = 0.5 nM Cbl-b final concentration (High), read-out: Cbl-b IC50 (High)

T1 sequence (Q13191 36-427): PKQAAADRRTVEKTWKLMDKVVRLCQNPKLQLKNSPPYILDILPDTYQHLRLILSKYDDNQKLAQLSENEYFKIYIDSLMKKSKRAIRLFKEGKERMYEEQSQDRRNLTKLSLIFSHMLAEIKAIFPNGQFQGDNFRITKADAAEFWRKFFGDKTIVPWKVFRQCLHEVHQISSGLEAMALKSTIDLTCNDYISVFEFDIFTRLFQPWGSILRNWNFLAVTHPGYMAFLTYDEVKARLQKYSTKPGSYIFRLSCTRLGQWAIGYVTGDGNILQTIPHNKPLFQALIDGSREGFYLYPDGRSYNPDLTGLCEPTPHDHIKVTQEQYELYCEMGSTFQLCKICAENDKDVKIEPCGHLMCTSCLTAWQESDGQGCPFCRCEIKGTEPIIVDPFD

Row | IC50 (Cbl-b [1]; [11]) [nM] | SMILES | fold induction at 0.3 µM [2, 12] | fold induction at 1 µM [2, 13] | fold induction at 1 µM [2, 14] | fold induction at 3 µM ([2]; anti-CD3 alone) | fold induction at 0.3 µM [3, 12] | fold induction at 1 µM [3, 15] | fold induction at 1 µM [3, 16] | fold induction at 3 µM ([3]; anti-CD3 alone) | fold induction at 0.3 µM [5, 12] | fold induction at 1 µM [5, 18] | fold induction at 1 µM [5, 19] | fold induction at 3 µM ([5]; anti-CD3 alone) | fold induction at 0.3 µM [6, 12] | fold induction at 1 µM [6, 20] | fold induction at 1 µM [6, 21] | fold induction at 3 µM ([6]; anti-CD3 alone) | fold induction at 0.3 µM [8, 12] | fold induction at 1 µM [8, 22] | fold induction at 1 µM [8, 23] | also measured
1 | < 1 | CCOc1cc(C2(Cc3nncn3C)COC2)cc(N2Cc3c(cc(CN4CCC[C@H](C)C4)cc3C(F)(F)F)C2=O)n1 [Compound 39, 2-(6-ethoxy-4-{3-[(4-methyl-1,2,4-triazol-3-yl)methyl]oxetan-3-yl}pyridin-2-yl)-6-{[(3S)-3-methylpiperidin-1-yl]methyl}-4-(trifluoromethyl)-3H-isoindol-1-one] | > 15 | > 15 | > 0.66 | > 0.66 | > 1.39 | > 1.39 | > 1.14 | > 1.14 | > 15 | > 15 | > 0.66 | > 0.66 | > 1.39 | > 1.39 | > 1.14 | > 1.14 | > 15 | > 15 | > 0.66 | IC50 (Cbl-b [1]; [10]): < 1 nM; IC50 (Cbl-b [4]; [17]): < 1 nM; IC50 (Cbl-b [7]; [17]): < 1 nM; fold induction at 3 µM ([8]; anti-CD3 alone): > 0.66; fold induction at 0.3 µM [9, 12]: > 1.39; fold induction at 1 µM [9, 24]: > 1.39; fold induction at 1 µM [9, 25]: > 1.14; fold induction at 3 µM ([9]; anti-CD3 alone): > 1.14
2 | < 1 | C[C@@H]1CN(Cc2cc(C(=O)Nc3cccc(C4(Cc5nncn5C)COC4)c3)nc(C3CC3)c2)CCC1(F)F [Compound 32, 6-cyclopropyl-4-{[(3R)-4,4-difluoro-3-methylpiperidin-1-yl]methyl}-N-(3-{3-[(4-methyl-1,2,4-triazol-3-yl)methyl]oxetan-3-yl}phenyl)pyridine-2-carboxamide] | > 15 | > 15 | 0.34 to 0.66 | 0.34 to 0.66 | < 1.24 | < 1.24 | 1.05 to 1.14 | 1.05 to 1.14 | > 15 | > 15 | > 0.66 | > 0.66 | > 1.39 | > 1.39 | > 1.14 | > 1.14 | > 15 | > 15 | > 0.66 | IC50 (Cbl-b [1]; [26]): < 1 nM; IC50 (Cbl-b [4]; [27]): < 1 nM; IC50 (Cbl-b [7]; [27]): < 1 nM; fold induction at 3 µM ([8]; anti-CD3 alone): > 0.66; fold induction at 0.3 µM [9, 12]: > 1.39; fold induction at 1 µM [9, 24]: > 1.39; fold induction at 1 µM [9, 25]: > 1.14; fold induction at 3 µM ([9]; anti-CD3 alone): > 1.14
3 | < 1 | C[C@@H]1C[C@H](C)CN(Cc2cc3c(c(C(F)(F)F)c2)CN(c2cccc(C4(Cc5nncn5C)COC4)c2)C3=O)C1 [Compound 2, 6-{[(3R,5S)-3,5-dimethylpiperidin-1-yl]methyl}-2-(3-{3-[(4-methyl-1,2,4-triazol-3-yl)methyl]oxetan-3-yl}phenyl)-4-(trifluoromethyl)-3H-isoindol-1-one] | > 15 | > 15 | 0.34 to 0.66 | > 0.66 | < 1.24 | < 1.24 | 1.05 to 1.14 | 1.05 to 1.14 | 10 to 15 | 10 to 15 | 0.34 to 0.66 | > 0.66 | < 1.24 | < 1.24 | 1.05 to 1.14 | 1.05 to 1.14 | 11 to 15 | 11 to 15 | 0.34 to 0.66 | IC50 (Cbl-b [1]; [26]): < 1 nM; IC50 (Cbl-b [4]; [27]): < 1 nM; IC50 (Cbl-b [7]; [27]): < 1 nM; fold induction at 3 µM ([8]; anti-CD3 alone): > 0.66; fold induction at 0.3 µM [9, 12]: < 1.24; fold induction at 1 µM [9, 24]: < 1.24; fold induction at 1 µM [9, 25]: 1.05 to 1.14; fold induction at 3 µM ([9]; anti-CD3 alone): 1.05 to 1.14
4 | < 1 | CCNc1cc(C2(Cc3nncn3C)COC2)cc(N2Cc3c(cc(CN4CCC[C@H](C)C4)cc3C(F)(F)F)C2=O)n1 [Compound 44, 2-[6-(ethylamino)-4-{3-[(4-methyl-1,2,4-triazol-3-yl)methyl]oxetan-3-yl}pyridin-2-yl]-6-{[(3S)-3-methylpiperidin-1-yl]methyl}-4-(trifluoromethyl)-3H-isoindol-1-one] | > 15 | > 15 | > 0.66 | > 0.66 | > 1.39 | > 1.39 | > 1.14 | > 1.14 | < 10 | < 10 | < 0.33 | 0.34 to 0.66 | 1.25 to 1.39 | 1.25 to 1.39 | 1.05 to 1.14 | 1.05 to 1.14 | < 10 | < 10 | < 0.33 | IC50 (Cbl-b [1]; [10]): < 1 nM; IC50 (Cbl-b [4]; [17]): < 1 nM; IC50 (Cbl-b [7]; [17]): < 1 nM; fold induction at 3 µM ([8]; anti-CD3 alone): 0.34 to 0.66; fold induction at 0.3 µM [9, 12]: 1.25 to 1.39; fold induction at 1 µM [9, 24]: 1.25 to 1.39; fold induction at 1 µM [9, 25]: 1.05 to 1.14; fold induction at 3 µM ([9]; anti-CD3 alone): 1.05 to 1.14
